According to ChEMBL document CHEMBL1130543, “Solid-phase synthesis of hybrid thiazolidinedione-fatty acid PPAR ligands” (Bioorg Med Chem Lett, 1997):

Columns and labels:
[1] = biological target: T1, Peroxisome proliferator-activated receptor gamma (Homo sapiens, UniProt P37231)
T1 sequence (P37231 whole entry): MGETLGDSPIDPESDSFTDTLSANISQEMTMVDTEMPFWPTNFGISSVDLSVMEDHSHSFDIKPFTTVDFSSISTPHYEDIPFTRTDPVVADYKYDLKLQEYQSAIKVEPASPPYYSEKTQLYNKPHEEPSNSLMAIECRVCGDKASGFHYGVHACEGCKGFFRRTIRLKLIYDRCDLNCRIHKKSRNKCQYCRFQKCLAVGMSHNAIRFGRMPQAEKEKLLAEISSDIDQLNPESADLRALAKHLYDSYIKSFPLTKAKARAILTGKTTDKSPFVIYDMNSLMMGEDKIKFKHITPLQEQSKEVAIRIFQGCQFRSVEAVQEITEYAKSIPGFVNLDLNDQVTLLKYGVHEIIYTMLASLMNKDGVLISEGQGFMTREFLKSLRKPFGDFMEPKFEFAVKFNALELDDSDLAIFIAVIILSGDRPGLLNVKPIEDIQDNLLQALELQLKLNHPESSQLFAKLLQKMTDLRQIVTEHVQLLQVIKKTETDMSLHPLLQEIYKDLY
Description: Binding affinity was determined by displacement of 20 nM [3H]- thiazolidinedione from 4 nM biotinylated human peroxisome proliferator-activated receptor (PPAR gamma) ligand binding domain

[2] = Tested for transactivation of human PPAR gamma-Gal4 chimera in CV-1 cells; assay type: functional, cell-based
[3] = biological target: T1, Peroxisome proliferator-activated receptor gamma; assay: Binding affinity was determined by displacement of 20 nM [3H]- thiazolidinedione from 4 nM biotinylated human Peroxisome proliferator activated receptor gamma (PPAR gamma) ligand binding domain

SMILES	Ki [1]	EC50 [2]	Ki [3]
C=CCC/C=C/C(=O)NCCOc1ccc(CC2SC(=O)NC2=O)cc1 (stereo not drawn)	6.8 µM	–	–
C=CCCC(=O)N(C)CCOc1ccc(CC2SC(=O)NC2=O)cc1 (stereo not drawn)	0.6 µM	–	–
CCCCCCCCC(=O)N(C)CCOc1ccc(CC2SC(=O)NC2=O)cc1 (stereo not drawn)	0.018 µM	0.28 µM	–
CCCCC/C=C/C/C=C\C/C=C\C/C=C\CCCC(=O)O	1.5 µM	30 µM	–
CCCCCCCC(=O)NCCOc1ccc(CC2SC(=O)NC2=O)cc1 (stereo not drawn)	0.29 µM	–	–
C/C=C/CC(=O)NCCOc1ccc(CC2SC(=O)NC2=O)cc1 (stereo not drawn)	> 10 µM	–	–
CCCCCC(=O)N(C)CCOc1ccc(CC2SC(=O)NC2=O)cc1 (stereo not drawn)	0.18 µM	–	–
CCCCCCCCCC(=O)N(C)CCOc1ccc(CC2SC(=O)NC2=O)cc1 (stereo not drawn)	0.02 µM	0.29 µM	–
CC/C=C/C(=O)N(C)CCOc1ccc(CC2SC(=O)NC2=O)cc1 (stereo not drawn)	1.2 µM	–	–
CCCCC(=O)N(C)CCOc1ccc(CC2SC(=O)NC2=O)cc1 (stereo not drawn)	1.1 µM	–	–
CCCCCC(=O)NCCOc1ccc(CC2SC(=O)NC2=O)cc1 (stereo not drawn)	–	–	10 µM
C/C=C/CC(=O)N(C)CCOc1ccc(CC2SC(=O)NC2=O)cc1 (stereo not drawn)	1.2 µM	–	–
C=CCC/C=C/C(=O)N(C)CCOc1ccc(CC2SC(=O)NC2=O)cc1 (stereo not drawn)	0.018 µM	0.52 µM	–
CCCCCCC(=O)NCCOc1ccc(CC2SC(=O)NC2=O)cc1 (stereo not drawn)	1.4 µM	–	–
CCCCCCCC(=O)N(C)CCOc1ccc(CC2SC(=O)NC2=O)cc1 (stereo not drawn)	0.048 µM	0.28 µM	–
CCCCCCCCC(=O)NCCOc1ccc(CC2SC(=O)NC2=O)cc1 (stereo not drawn)	0.27 µM	–	–
CCCCCCC(=O)N(C)CCOc1ccc(CC2SC(=O)NC2=O)cc1 (stereo not drawn)	0.061 µM	0.81 µM	–
CC/C=C/C(=O)NCCOc1ccc(CC2SC(=O)NC2=O)cc1 (stereo not drawn)	> 10 µM	–	–
C=CCCC(=O)NCCOc1ccc(CC2SC(=O)NC2=O)cc1 (stereo not drawn)	> 10 µM	–	–
CCCCCCCCCC(=O)NCCOc1ccc(CC2SC(=O)NC2=O)cc1 (stereo not drawn)	0.13 µM	–	–
CCCCC(=O)NCCOc1ccc(CC2SC(=O)NC2=O)cc1 (stereo not drawn)	> 10 µM	–	–
CN(CCOc1ccc(CC2SC(=O)NC2=O)cc1)c1ccccn1 (stereo not drawn) [ROSIGLITAZONE]	–	0.05 µM	–
